One block for each molecule: values may come before it. Active and inactive are the calls of the source. The rule behind the calls is not given here.
Columns and labels:
HeLa [1] = test: Phototoxicity against human HeLa cells assessed as cell death at 0.02 to 5 ppm preincubated for 18 hrs under dark condition followed by medium replacement and 436 nm blue light irradiation for 2 mins and measured after 2 hrs by microscopic analysis; type: functional, cell-based; conditions: dose 0.02-5 ppm, time 20.03 hrs
DNA [2] = test: Binding affinity to DNA (unknown origin) assessed as redshift in absorption maxima at 15 uM with […] blue light irradiation incubated for 24 hrs by fluorescence based assay; type: nucleic-acid assay
DNA [3] = test: Binding affinity to DNA (unknown origin) at 15 uM with 436 nm blue light irradiation incubated for 24 hrs by fluorescence based assay; type: nucleic-acid assay
DNA [4] = test: Binding affinity to DNA (unknown origin) upto 25 uM incubated for 24 hrs in presence of ethidium bromide by […]; type: nucleic-acid assay
HeLa [5] = test: Phototoxicity against human HeLa cells assessed as ATM kinase activation at 1 ppm with 365 and 436 nm light irradiation by Western blot analysis; type: functional, cell-based
HeLa [6] = test: Phototoxicity against human HeLa cells assessed as gamma-H2AX activation at 1 ppm with 365 and 436 nm light irradiation by Western blot analysis; type: functional, cell-based
HeLa [7] = test: Phototoxicity against human HeLa cells assessed as BAX activation at 1 ppm with 365 and 436 nm light irradiation by Western blot analysis; type: functional, cell-based
HeLa [8] = test: Phototoxicity against human HeLa cells assessed as BAK activation at 1 ppm with 365 and 436 nm light irradiation by Western blot analysis; type: functional, cell-based
HeLa [9] = test: Phototoxicity against human HeLa cells assessed as cleaved caspase-3 activation at 1 ppm with 365 and 436 nm light irradiation by Western blot analysis; type: functional, cell-based; conditions: time 18.0 hrs
DNA [10] = test: Binding affinity to DNA (unknown origin) in aqueous media at 15 uM at 436 nm blue light irradiation incubated for 24 hrs by fluorescence based assay; type: nucleic-acid assay
DNA [11] = test: Binding affinity to DNA (unknown origin) in aqueous media at 15 uM with 436 nm blue light irradiation incubated for 24 hrs by CD spectra analysis; type: nucleic-acid assay
DNA [12] = test: Binding affinity to DNA (unknown origin) in aqueous media at 15 uM with > 546 nm blue light irradiation incubated for 24 hrs by CD spectra analysis; type: nucleic-acid assay
HeLa [13] = test: Phototoxicity against human HeLa cells assessed as cell death at 0.5 ppm preincubated for 1 day followed by UV irradiation for 20 sec; type: functional, cell-based; conditions: time 86420.0 sec
HeLa [14] = test: Phototoxicity against human HeLa cells assessed as cell death at 5 ppm incubated for 18 hrs followed by medium replacement and 436 nm blue light irradiation for 2 mins and measured after 2 hrs by microscopic analysis; type: functional, cell-based; conditions: time 20.03 hrs
HeLa [15] = test: Phototoxicity against human HeLa cells assessed as cell death at 0.05 ppm incubated for 18 hrs followed by medium replacement and 436 nm blue light irradiation for 2 mins and measured after 2 hrs by microscopic analysis; type: functional, cell-based
HeLa [16] = test: Phototoxicity against human HeLa cells assessed as cell shrinkage at 1 nM preincubated for 18 hrs under dark condition followed by medium replacement and 436 nm blue light irradiation for 2 mins and measured after 2 hrs by microscopic analysis; type: functional, cell-based; conditions: time 20.03 hrs
HeLa [17] = test: Phototoxicity against human HeLa cells assessed as cell rounding at 1 nM preincubated for 18 hrs under dark condition followed by medium replacement and 436 nm blue light irradiation for 2 mins and measured after 2 hrs by microscopic analysis; type: functional, cell-based; conditions: time 20.03 hrs
HeLa [18] = test: Phototoxicity against human HeLa cells assessed as ATM kinase activation at 0.1 ppm with 436 nm blue light irradiation by Western blot analysis; type: functional, cell-based; conditions: time 20.03 hrs
HeLa [19] = test: Phototoxicity against human HeLa cells assessed as gamma-H2AX activation at 0.1 ppm with 436 nm blue light irradiation by Western blot analysis; type: functional, cell-based; conditions: time 20.03 hrs
HeLa [20] = test: Phototoxicity against human HeLa cells assessed as CHK1 activation at 0.1 ppm with 436 nm blue light irradiation by Western blot analysis; type: functional, cell-based; conditions: time 20.03 hrs
HeLa [21] = test: Phototoxicity against human HeLa cells assessed as CHK2 activation at 0.1 ppm with 436 nm blue light irradiation by Western blot analysis; type: functional, cell-based; conditions: time 20.03 hrs
HeLa [22] = test: Phototoxicity against human HeLa cells assessed as BAX activation at 0.1 ppm with 436 nm blue light irradiation by Western blot analysis; type: functional, cell-based; conditions: time 20.03 hrs
HeLa [23] = test: Phototoxicity against human HeLa cells assessed as BAK activation at 0.1 ppm with 436 nm blue light irradiation by Western blot analysis; type: functional, cell-based; conditions: time 20.03 hrs
HeLa [24] = test: Phototoxicity against human HeLa cells assessed as caspase-3 activation at 0.1 ppm with 436 nm blue light irradiation by Western blot analysis; type: functional, cell-based; conditions: time 20.03 hrs
HeLa [25] = test: Phototoxicity against human HeLa cells assessed as activation of BAX multiplication at 0.1 ppm with 436 nm blue light irradiation by Western blot analysis; type: functional, cell-based
HeLa [26] = test: Phototoxicity in human HeLa cells assessed as cell damage at 0.2 ppm pre-irradiated with 546 nm green light followed by 436 nm blue light irradiation; type: functional, cell-based
HeLa [27] = test: Phototoxicity in human HeLa cells assessed as cell damage at 0.2 ppm irradiated with 546 nm green light; type: functional, cell-based

SMILES: Cc1cc(-c2ccccc2)sc1C1=C(c2sc(-c3ccccc3)cc2C)C(F)(F)C(F)(F)C1(F)F
Activity (HeLa [14]): inactive

SMILES: Cc1nc(-c2ccccc2)sc1C1=C(c2sc(-c3ccccc3)nc2C)C(F)(F)C(F)(F)C1(F)F
Activity (HeLa [14]): inactive

SMILES: CC12C=C(c3ccccc3)SC1=C1C(=C3SC(c4ccccc4)=CC32C)C(F)(F)C(F)(F)C1(F)F (stereo not given)
Activity (HeLa [15]): Active

SMILES: CC12C=C(c3ccccc3)SC1=C1C(=C3SC(c4ccccc4)=NC32C)C(F)(F)C(F)(F)C1(F)F (stereo not given)
Activity (HeLa [15]): Active

SMILES: Cc1cc(-c2ccccc2)sc1C1=C(c2sc(-c3ccccc3)nc2C)C(F)(F)C(F)(F)C1(F)F
Activity (HeLa [14]): inactive

SMILES: CC12N=C(c3ccccc3)SC1=C1C(=C3SC(c4ccccc4)=NC32C)C(F)(F)C(F)(F)C1(F)F (stereo not given)
Activity (HeLa [15]): Active

Further lines, with some results ahead:

Activity (DNA [2]): inactive
Activity (DNA [3]): Active
KSV (DNA [4]): 1.6 10^3/M
SMILES: Cc1sc(-c2ccccc2)cc1C1=C(c2cc(-c3ccccc3)sc2C)C(F)(F)C(F)(F)C1(F)F
Activity (HeLa [1]): inactive

Activity (DNA [2]): inactive
Activity (DNA [3]): Active
KSV (DNA [4]): 27 10^3/M
SMILES: CC12SC(c3ccccc3)=CC1=C1C(=C3C=C(c4ccccc4)SC32C)C(F)(F)C(F)(F)C1(F)F (stereo not given)
Activity (HeLa [1]): inactive

Activity (DNA [2]): Active
Activity (DNA [3]): Active
Activity (DNA [10]): Active
Activity (DNA [11]): Active
Activity (DNA [12]): inactive
KSV (DNA [4]): 1.6 10^3/M
SMILES: Cc1sc(-c2ccccc2)nc1C1=C(c2nc(-c3ccccc3)sc2C)C(F)(F)C(F)(F)C1(F)F
Activity (HeLa [1]): inactive
Activity (HeLa [5]): inactive
Activity (HeLa [6]): inactive
Activity (HeLa [7]): inactive
Activity (HeLa [8]): inactive
Activity (HeLa [9]): inactive
Activity (HeLa [13]): inactive

Activity (DNA [2]): Active
Activity (DNA [3]): Active
KSV (DNA [4]): 27 10^3/M
SMILES: CC12SC(c3ccccc3)=NC1=C1C(=C3N=C(c4ccccc4)SC32C)C(F)(F)C(F)(F)C1(F)F (stereo not given)
Activity (HeLa [1]): Active
Activity (HeLa [16]): Active
Activity (HeLa [17]): Active
Activity (HeLa [18]): Active
Activity (HeLa [19]): Active
Activity (HeLa [20]): Active
Activity (HeLa [21]): Active
Activity (HeLa [22]): Active
Activity (HeLa [23]): Active
Activity (HeLa [24]): Active
Activity (HeLa [25]): Active
Activity (HeLa [26]): Active
Activity (HeLa [27]): Active

Activity (DNA [2]): Active
Activity (DNA [3]): Active
KSV (DNA [4]): 27 10^3/M
SMILES: C[C@]12SC(c3ccccc3)=CC1=C1C(=C3N=C(c4ccccc4)S[C@@]32C)C(F)(F)C(F)(F)C1(F)F
Activity (HeLa [1]): Active

Activity (DNA [2]): Active
Activity (DNA [3]): Active
KSV (DNA [4]): 1.6 10^3/M
SMILES: Cc1sc(-c2ccccc2)cc1C1=C(c2nc(-c3ccccc3)sc2C)C(F)(F)C(F)(F)C1(F)F

— ChEMBL document CHEMBL5338757, “Phototunable Cell Killing by Photochromic Diarylethene of Thiazoyl and Thienyl Derivatives” (J Med Chem, 2023)
